From patent US11559538B2, “Substituted 1,2-oxaborolan-2-ols as PDE4 inhibitors” (Pfizer Inc., priority 2018, dated 2023) come the findings set out here.

Read-outs that look alike come from different tables or passages of the source.

One assay relates to IFNγ. The assay is described as follows: Cytokine assay: IFNγ release from PHA-L stimulated human PBMCs. The assay is classed as cell-based. The method, then:
(§1) Cytokine inhibitory activity is determined by measuring the effect of test agent on the release of the cytokines IL-4, IL-13 and IFNγ from human peripheral blood mononuclear cells (PBMCs) stimulated with the T-cell mitogen phytohemagglutinin-L (PHA-L). At the time of assay, human PBMCs (Astarte Biologics) are removed from cryopreservation, thawed quickly at 37° C., diluted in assay medium (RPMI-Gibco 1640 medium, 10% heat inactivated fetal bovine serum (HIFBS), 2 mM glutamine and 10 mM HEPES pH 7.4) and then centrifuged at 250×g for 5 minutes. The resulting cell pellet is re-suspended in assay medium to a concentration of approximately 5×10^6 cells/mL and 50 μL of this cell suspension (approximately 250,000 cells) is added to each well of a 384-well cell culture microtiter plate (Perkin Elmer). Varying concentrations of test compound are then diluted in assay medium and added to the assay plate wells in a volume of 25 μL. After −10 minutes at room temperature (21° C.) the cells are stimulated by the addition of 25 μL of PHA-L (14 μg/mL; Millipore) and the assay plate is placed in an incubator at 37° C. in a humidified environment in 5% carbon dioxide. The final assay conditions are approximately 250,000 human PBMCs per well in assay medium containing 3.5 μg/mL PHA-L and the indicated final concentration of test compound (approximately 10 μM to […] by 4-fold dilution). The final concentration of DMSO in the assay is approximately 0.25%. After 48 hours, the assay plate is removed from the incubator and centrifuged at 250×g for 5 minutes. A portion of the resulting cell supernatant is then used to determine the amount of IL-4, IL-13 and IFNγ in each well. Cytokine measurements are made using human IL-4, IL-13 or IFNγ HTRF assay kits (CisBio) following the manufacturer's assay protocol. The concentrations and resulting effect values for tested compounds are plotted and the concentration of compound required for 50% effect (IC50) is determined with a four-parameter logistic dose response equation (E-WorkBook, ID Business Solutions Ltd.) and shown in Table 17.

The subject of the next assay is IL-13. The assay is described as follows: Cytokine assay: IL-13 release from PHA-L stimulated human PBMCs. Format: cell-based. To be noted: read-out: IL13 IC50. Here is the method:
as §1

The next assay concerns IL-4. The assay is described as follows: Cytokine assay: IL-4 release from PHA-L stimulated human PBMCs. Format: cell-based. To be noted: read-out: IL4 IC50. The method, then:
as §1

Assay [1] has as its target PDE4B (aa 152-484, Uniprot ID Q07343) (Homo sapiens (Human), UniProt Q07343). The assay is described as follows: PDE4 SPA assay (scintillation proximity assay). The assay is classed as biochemical. As to conditions: read-out: PDE4B2 IC50. Here is the method:
Phosphodiesterase (PDE) activity is determined by measuring the effect of a test agent on the activity of the PDE4B enzyme in a scintillation proximity assay (SPA). At the time of assay, approximately 30 μL of PDE4B (aa 152-484, Uniprot ID Q07343) in 50 mM Tris pH 7.5, 1.3 mM MgC2, 0.004% Brij 35 is added to a 384 well white clear bottom polystyrene plate (Corning) containing 1 μL of varying concentrations of test compound. After −10 minutes at room temperature (RT; 21° C.), the assay is initiated by the addition of 20 μL of a mixture of ^3H-labeled (adenosine 3′, 5′-cyclic phosphate, ammonium salt, [2,8-^3H]; Perkin Elmer) and unlabeled cAMP. The final assay conditions are approximately 81.6 pM PDE4B in 50 mM Tris pH 7.5, 1.3 mM MgCl2, 0.004% Brij 35, 1 μM ^3H-labeled/unlabeled cAMP (1425 dpm/pmol) and the indicated final concentration of test compound (approximately 10 μM to […] by 4-fold dilution). The final concentration of DMSO in the assay is approximately 2.0%. After 30 minutes at RT, the assay is terminated by the addition of approximately 20 μL of an aqueous solution of PDE YSI SPA beads (8 mg/mL in water; Perkin Elmer). The beads are allowed to settle for at least 2 hours and the plate is then counted on a MicroBeta2 (Perkin Elmer). The concentrations and resulting effect values for the tested compound are plotted and the concentration of compound required for 50% effect (IC50) is determined with a four-parameter logistic dose response equation (E-WorkBook, ID Business Solutions Ltd.) and shown in Table 17.
On the technique in general: Scintillation proximity formats need no separation of bound from free tracer.

Sequence of PDE4B (aa 152-484, Uniprot ID Q07343) (Q07343 324-656): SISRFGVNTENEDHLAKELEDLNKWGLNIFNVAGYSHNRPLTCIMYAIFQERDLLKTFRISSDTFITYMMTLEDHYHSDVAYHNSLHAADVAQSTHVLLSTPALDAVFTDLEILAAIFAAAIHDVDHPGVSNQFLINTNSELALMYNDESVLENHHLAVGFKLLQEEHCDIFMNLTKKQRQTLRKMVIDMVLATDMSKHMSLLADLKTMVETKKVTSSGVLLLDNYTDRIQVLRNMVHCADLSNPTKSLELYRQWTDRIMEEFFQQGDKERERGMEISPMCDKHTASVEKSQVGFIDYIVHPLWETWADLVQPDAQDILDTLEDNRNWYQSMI

The term IC50 denotes the concentration at which inhibition is half-maximal. `COc1ccc(-c2cncc(C3COB(O)C3)c2)cc1OC` (single isomer, unassigned) [Example 1, 4-(5-(3,4-dimethoxyphenyl)pyridin-3-yl)-1,2-oxaborolan-2-ol]: the IC50 amounted to 2.98 nM with IFNγ, 284 nM with IL-13, 14.3 nM in the assay with IL-4 and 3.16 nM in assay [1].

As for `COc1ccc(-c2cncc(C3COB(O)C3)c2)cc1OC(C)C` (single isomer, unassigned) [Example 6, 4-(5-(3-isopropoxy-4-methoxyphenyl)pyridin-3-yl)-1,2-oxaborolan-2-ol], the IC50 was found to be 0.72 nM in the assay with IFNγ, 283 nM in the assay with IL-13, 17.6 nM in the assay with IL-4 and 1.05 nM in assay [1].

Turning to `COc1ccc(-c2cncc(C3COB(O)C3)c2)cc1OC1CC1` (single isomer, unassigned) [Example 7, 4-(5-(3-cyclopropoxy-4-methoxyphenyl)pyridin-3-yl)-1,2-oxaborolan-2-ol], the IC50 was determined as 0.71 nM in the assay on IFNγ, 289 nM in the assay with IL-13, 7.76 nM in the assay with IL-4 and 0.97 nM in assay [1].

`COc1ccc(-c2cncc(C3COB(O)C3)c2)cc1OCCO` (single isomer, unassigned) [Example 8, 4-(5-(3-(2-hydroxyethoxy)-4-methoxyphenyl)pyridin-3-yl)-1,2-oxaborolan-2-ol]: the IC50 is 1.2 nM in the assay with IFNγ, 25 nM in the assay with IL-13, 0.76 nM with IL-4 and 2.42 nM in assay [1].

As for `COc1ccc(-c2cncc(C3COB(O)C3)c2)cc1OCCCO` (single isomer, unassigned) [Example 9, 4-(5-(3-(3-hydroxypropoxy)-4-methoxyphenyl)pyridin-3-yl)-1,2-oxaborolan-2-ol], the IC50 was determined as 1.87 nM in the assay on IFNγ (Homo sapiens, PBMC); 265 nM with IL-13 (Homo sapiens, PBMC); 3.63 nM in the assay with IL-4 (Homo sapiens, PBMC); 1.26 nM in assay [1].

On to `CCOc1c(OC)ccc(-c2cncc(C3COB(O)C3)c2)c1C(F)F` (single isomer, unassigned) [Example 11, 4-(5-(2-(difluoromethyl)-3-ethoxy-4-methoxyphenyl)pyridin-3-yl)-1,2-oxaborolan-2-ol], for which the IC50 in the assay on IFNγ turned out to be 68.3 nM; in the assay on IL-13, 10000 nM; with IL-4 it was 141 nM; in assay [1], 33.5 nM.

With `CCOc1cc(-c2cncc(C3COB(O)C3)c2)cc(F)c1OC` (single isomer, unassigned) [Example 12, 4-(5-(3-ethoxy-5-fluoro-4-methoxyphenyl)pyridin-3-yl)-1,2-oxaborolan-2-ol], the IC50 was 0.99 nM with IFNγ, 162 nM in the assay with IL-13, 2.32 nM in the assay on IL-4 and 1.08 nM in assay [1].

In the case of `CCOc1cc(-c2cncc(C3COB(O)C3)c2)cc(Cl)c1OC` (single isomer, unassigned) [Example 13, 4-(5-(3-chloro-5-ethoxy-4-methoxyphenyl)pyridin-3-yl)-1,2-oxaborolan-2-ol], the IC50 in the assay with IFNγ is 4.89 nM; in the assay on IL-13 it was 166 nM; in the assay with IL-4, 5.98 nM; in assay [1], 0.97 nM.

Regarding `CCOc1cc(-c2cncc(C3COB(O)C3)c2)c(F)cc1OC` (single isomer, unassigned) [Example 14, 4-(5-(5-ethoxy-2-fluoro-4-methoxyphenyl)pyridin-3-yl)-1,2-oxaborolan-2-ol], the IC50 was determined as 1.85 nM with IFNγ (Homo sapiens, PBMC); 91 nM in the assay on IL-13 (Homo sapiens, PBMC); 3.21 nM in the assay on IL-4 (Homo sapiens, PBMC); 1.5 nM in assay [1].

`CCOc1cc(-c2cncc(C3COB(O)C3)c2)c(Cl)cc1OC` (single isomer, unassigned) [Example 15, 4-(5-(2-chloro-5-ethoxy-4-methoxyphenyl)pyridin-3-yl)-1,2-oxaborolan-2-ol]: the IC50 in the assay on IFNγ (Homo sapiens, PBMC) stood at 0.71 nM; in the assay with IL-13 (Homo sapiens, PBMC), 136 nM; in the assay on IL-4 (Homo sapiens, PBMC) it was 1.41 nM; in assay [1] it was 1.57 nM.

Regarding `CCCOc1nc(-c2cncc(C3COB(O)C3)c2)c(F)cc1OC` (single isomer, unassigned) [Example 16, 4-(3-fluoro-5-methoxy-6-propoxy-[2,3′-bipyridin]-5′-yl)-1,2-oxaborolan-2-ol], the concentration for half-maximal inhibition (IC50) in the assay on IFNγ was 0.82 nM; with IL-13 it was 126 nM; in the assay with IL-4, 0.54 nM; in assay [1], 0.05 nM.

Take `CCCOc1cc(-c2cncc(C3COB(O)C3)c2)ccc1OC(F)F` (single isomer, unassigned) [Example 17, 4-(5-(4-(difluoromethoxy)-3-propoxyphenyl)pyridin-3-yl)-1,2-oxaborolan-2-ol]: the half-inhibitory concentration (IC50) with IFNγ (Homo sapiens, PBMC) amounted to 0.47 nM; in the assay with IL-13 (Homo sapiens, PBMC) it was 138 nM; in the assay on IL-4 (Homo sapiens, PBMC), 0.65 nM; in assay [1], 0.28 nM.

In the case of `CCCOc1cc(-c2cncc(C3COB(O)C3)c2)cnc1OC` (single isomer, unassigned) [Example 18, 4-(6′-methoxy-5′-propoxy-[3,3′-bipyridin]-5-yl)-1,2-oxaborolan-2-ol], the IC50 in the assay with IFNγ (Homo sapiens, PBMC) worked out at 2.23 nM; with IL-13 (Homo sapiens, PBMC) it was 218 nM; in the assay on IL-4 (Homo sapiens, PBMC) it was 1.91 nM; in assay [1], 0.74 nM.

Turning to `CCOc1cc(-c2cc([C@@H]3COB(O)C3)cnc2C)ccc1OC` (single isomer, unassigned) [Example 19], the IC50 in the assay on IFNγ (Homo sapiens, PBMC) worked out at 1.68 nM; with IL-13 (Homo sapiens, PBMC), 1480 nM; in the assay with IL-4 (Homo sapiens, PBMC) it was 2.56 nM; in assay [1] it was 2.96 nM.

With `CCOc1cc(-c2cc([C@H]3COB(O)C3)cnc2C)ccc1OC` (single isomer, unassigned) [Example 20], the IC50 with IFNγ (Homo sapiens, PBMC) turned out to be 103 nM; in the assay with IL-13 (Homo sapiens, PBMC), 8790 nM; in the assay with IL-4 (Homo sapiens, PBMC), 86.8 nM; in assay [1], 26.9 nM.

In the case of `CCOc1cc(-c2cncc(C3COB(O)C3)c2C)ccc1OC` (single isomer, unassigned) [Example 21, 4-(5-(3-ethoxy-4-methoxyphenyl)-4-methylpyridin-3-yl)-1,2-oxaborolan-2-ol], the IC50 in the assay on IFNγ worked out at 1.35 nM; in the assay on IL-13, 159 nM; in the assay with IL-4, 0.84 nM; in assay [1], 0.64 nM.

For `CCCOc1cc(-c2nc(C)cc(C3COB(O)C3)n2)ccc1OC` (single isomer, unassigned) [Example 22, 4-(2-(4-methoxy-3-propoxyphenyl)-6-methylpyrimidin-4-yl)-1,2-oxaborolan-2-ol], the IC50 in the assay with IFNγ (Homo sapiens, PBMC) is 1.43 nM; in the assay on IL-13 (Homo sapiens, PBMC) it was 257 nM; in the assay on IL-4 (Homo sapiens, PBMC) it was 1.75 nM; in assay [1] it was 7.89 nM.

As to `CCCOc1cc(-c2nc(C3COB(O)C3)cc(C(F)(F)F)n2)ccc1OC` (single isomer, unassigned) [Example 23, 4-(2-(4-methoxy-3-propoxyphenyl)-6-(trifluoromethyl)pyrimidin-4-yl)-1,2-oxaborolan-2-ol], the IC50 was 0.85 nM with IFNγ (Homo sapiens, PBMC); 132 nM in the assay with IL-13 (Homo sapiens, PBMC); 0.61 nM with IL-4 (Homo sapiens, PBMC); 0.97 nM in assay [1].

For the compound `CCOc1cc(-c2cncc(C3COB(O)C3)n2)ccc1OC` (single isomer, unassigned) [Example 24, 4-(6-(3-ethoxy-4-methoxyphenyl)pyrazin-2-yl)-1,2-oxaborolan-2-ol], the IC50 in the assay on IFNγ (Homo sapiens, PBMC) amounted to 1.33 nM; with IL-13 (Homo sapiens, PBMC), 163 nM; in the assay with IL-4 (Homo sapiens, PBMC), 2.24 nM; in assay [1], 0.99 nM.

For `COc1ccc(-c2cccc(C3COB(O)C3)n2)cc1OC` (stereo not shown) [Example 197, 4-(6-(3,4-dimethoxyphenyl)pyridin-2-yl)-1,2-oxaborolan-2-ol], the IC50 in the assay with IFNγ (Homo sapiens, PBMC) came out at 12.2 nM; in the assay with IL-13 (Homo sapiens, PBMC) it was 1580 nM; with IL-4 (Homo sapiens, PBMC), 107 nM.
